The subject of one assay is HUVEC. In words: Antiangiogenic activity in HUVEC assessed as inhibition of VEGF-induced capillary tube formation incubated for 6 hrs by capillary tube formation assay. It counts as functional, cell-based. Particulars: Homo sapiens.
In the next assay the test system is Hepa1c1c7. In words: Activation of QR in mouse Hepa1c1c7 cells assessed as increase in QR activity at 20 uM incubated for 24 hrs by NADPH-dependent menadiol-mediated reduction of MTT based assay relative to control. It counts as cell-based. The following applies: filed as activator.

With `CCN(CC)CCNC(=O)c1c(C)[nH]c(/C=C2\C(=O)Nc3ccc(F)cc32)c1C` [SUNITINIB], in the assay on HUVEC, the IC50 was 2.1 µM.

For the molecule `CC(C)C[C@H]1NC(=O)[C@@H]2CCCN2C(=O)[C@H]([C@@H](O)c2ccccc2)NC(=O)CNC(=O)[C@H](C(C)C)NC(=O)[C@H]2NC(=O)[C@@H](NC(=O)/C=C/c3ccccc3[C@H]3O[C@@H]3C)[C@@H](C)OC(=O)[C@@H](CC(N)=O)NC(=O)[C@H](NC(=O)[C@H](O)NC1=O)[C@@H](O)c1ccc(O)c(c1)Oc1ccc2cc1`, the fold change (FC) with Hepa1c1c7 came to 1.8. Also, the IC50 with HUVEC amounted to 8.9 µM.

The values above are taken from ChEMBL document CHEMBL5120792, “Nyuzenamide C, an Antiangiogenic Epoxy Cinnamic Acid-Containing Bicyclic Peptide from a Riverine Streptomyces sp” (J Nat Prod, 2022).
